What was measured:
[1] = test system: oral ulcer induced by acetic acid in rats; assay: Acetic acid-induced oral ulcer model in rats (body weight, food intake, ulcer diameter); format: in vivo, SD rats; conditions: 0.3 mg/kg intraperitoneal once a day
Description: Rats were anesthetized by intraperitoneal injection of 10% chloral hydrate solution. After anesthesia, 3 mm×3 mm filter paper impregnated with 100% glacial acetic acid was clung to the right buccal mucosa of rats for 45 s. After cauterization for 45 s, a round or oval white lesion of the buccal mucosa in this area was observed, indicating successful modeling.
All animals with successful modeling were randomly divided into six groups according to the ulcer area: (1) model group, 14 rats; (2) Xilei powder (15 mg/kg) group, 12 rats; (3) dexamethasone (0.3 mg/kg) group, 13 rats; (4) anemoside B4 high dose (about 60 mg/kg*3, i.e. 14 mg/suppository, one suppository/time, 3 times/day) group, 14 rats; (5) anemoside B4 medium dose (about 30 mg/kg*3, i.e. 7 mg/suppository, one suppository/time, 3 times/day) group, 14 rats; (6) anemoside B4 low dose (about 15 mg/kg*3, i.e. 3.5 mg/suppository, one suppository/time, 3 times/day) group, 14 rats; and 6 rats were included in the normal group.
24 h after modeling, drug was administrated for 3 successive days, including: local administration in Xilei powder group, once a day; intraperitoneal injection in dexamethasone group, once a day; rectal administration in anemoside B4 group, 3 times a day, and administration of blank suppository in model group, 3 times a day.
(1) General observation: daily food intake per cage was measured from the 2nd day after modeling, and animal weight was measured every 2 days. (2) Measurement of ulcer surface diameter: on the 2nd, 4th and 5th day after modeling, the diameter of ulcer surface was measured with a vernier caliper and recorded.

[2] = test system: oral ulcer induced by paclitaxel in rats; assay: Paclitaxel-induced oral ulcer model in rats (food intake, ulcer diameter); format: in vivo, SD rats; conditions: intraperitoneal once a day for 5 days
Description: Rats were anesthetized by intraperitoneal injection of 10% chloral hydrate solution. After anesthesia, the oral ulcer model induced by chemotherapeutic drugs was established by injecting 50 μl of 6 mg/ml paclitaxel injection into the right buccal mucosa of rats.
All animals with successful modeling were randomly divided into model group, (7 rats), anemoside B4 high dose (about 60 mg/kg*2) group (7 rats), and normal group (6 rats).
24 h after modeling, in anemoside B4 group, rectal administration was performed, 1 suppository/time, twice a day, for 5 successive days; in dexamethasone group, intraperitoneal administration was performed, once a day, for 5 successive days; and in model group, blank suppository was given.
(1) General observation: On the day of modeling, rats were fasted but free access to water for 12 hours, while the diet was given quantitatively on the second day after modeling, and the food intake of rats in each cage was measured daily from the third day after modeling (the second day after administration). (2) Measurement of ulcer surface diameter: from the 2nd day after modeling, the diameter of ulcer surface was measured with a vernier caliper and recorded for 7 successive days.

With `C[C@@H]1C[C@H]2[C@@H]3CCC4=CC(=O)C=C[C@]4(C)[C@@]3(F)[C@@H](O)C[C@]2(C)[C@@]1(O)C(=O)CO` [Dexamethasone] the Body weight ([1]; the 2nd day after modeling) was 230 + 8.3 g, the “Diameter of oral ulcer” value ([1]; the 2nd day after modeling) was 4.64 ± 0.38 mm and the “Food intake (g)/rat” value ([1]; the 3rd day after modeling) was 13.4 ± 3.35 g. The Body weight ([1]; the 4th day after modeling) was 216 + 9.2 g, the “Diameter of oral ulcer” value ([1]; the 4th day after modeling) was 3.16 ± 0.18 mm and the “Food intake (g)/rat” value ([1]; the 4th day after modeling) was 8.2 ± 2.39 g. For the same compound, the “Diameter of oral ulcer” value ([1]; the 5th day after modeling) was 2.78 ± 0.26 mm, the “Food intake (g)/rat” value ([1]; the 5th day after modeling) was 12.1 ± 4.70 g and the Body weight ([1]; the 6th day after modeling) was 213 + 13.7 g. The “Diameter of oral ulcers” value ([2]; the 2nd day after modeling) was 3.93 ± 0.48 mm, the “Diameter of oral ulcers” value ([2]; the 3rd day after modeling) was 4.00 ± 0.40 mm and the Food intake/rat ([2]; the 3rd day after modeling) was 13.78 ± 3.83 g. The “Diameter of oral ulcers” value ([2]; the 4th day after modeling) was 3.88 ± 0.58 mm, the Food intake/rat ([2]; the 4th day after modeling) was 10.61 ± 2.48 g and the “Diameter of oral ulcers” value ([2]; the 5th day after modeling) was 3.50 ± 0.87 mm. The Food intake/rat ([2]; the 5th day after modeling) was 13.91 ± 1.92 g, the “Diameter of oral ulcers” value ([2]; the 6th day after modeling) was 3.26 ± 0.84 mm and the Food intake/rat ([2]; the 6th day after modeling) was 19.84 ± 1.14 g. For the same compound, the “Diameter of oral ulcers” value ([2]; the 7th day after modeling) was 2.85 ± 0.81 mm and the Food intake/rat ([2]; the 7th day after modeling) was 18.79 ± 0.56 g.

Source: patent publication US20230102973A1, “Medical Use of Anemoside B4 in the Treatment of Oral Ulcers” (priority 2020, published 2023)
